Like-named read-outs stand apart in the source and are kept apart here.

For experiment [1], the target named is TYK2 (Homo sapiens (Human), UniProt P29597). The experiment can be described thus: Tyk2 activity inhibition assay (radioactive kinase assay / Caliper assay). Format: biochemical. The method in brief: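 Radiometric format: TYK2 with peptide substrate (20 μM) and 33P-ATP at 10 μM in HEPES pH 7.5, 1% DMSO, 120 min at room temp, P81 paper capture. Caliper mobility-shift format: TYK2 9.75 nM, peptide 30 at 3 uM, ATP 16 uM (also 1 mM), 25 min at 28° C.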
Chain of TYK2 (P29597 whole entry): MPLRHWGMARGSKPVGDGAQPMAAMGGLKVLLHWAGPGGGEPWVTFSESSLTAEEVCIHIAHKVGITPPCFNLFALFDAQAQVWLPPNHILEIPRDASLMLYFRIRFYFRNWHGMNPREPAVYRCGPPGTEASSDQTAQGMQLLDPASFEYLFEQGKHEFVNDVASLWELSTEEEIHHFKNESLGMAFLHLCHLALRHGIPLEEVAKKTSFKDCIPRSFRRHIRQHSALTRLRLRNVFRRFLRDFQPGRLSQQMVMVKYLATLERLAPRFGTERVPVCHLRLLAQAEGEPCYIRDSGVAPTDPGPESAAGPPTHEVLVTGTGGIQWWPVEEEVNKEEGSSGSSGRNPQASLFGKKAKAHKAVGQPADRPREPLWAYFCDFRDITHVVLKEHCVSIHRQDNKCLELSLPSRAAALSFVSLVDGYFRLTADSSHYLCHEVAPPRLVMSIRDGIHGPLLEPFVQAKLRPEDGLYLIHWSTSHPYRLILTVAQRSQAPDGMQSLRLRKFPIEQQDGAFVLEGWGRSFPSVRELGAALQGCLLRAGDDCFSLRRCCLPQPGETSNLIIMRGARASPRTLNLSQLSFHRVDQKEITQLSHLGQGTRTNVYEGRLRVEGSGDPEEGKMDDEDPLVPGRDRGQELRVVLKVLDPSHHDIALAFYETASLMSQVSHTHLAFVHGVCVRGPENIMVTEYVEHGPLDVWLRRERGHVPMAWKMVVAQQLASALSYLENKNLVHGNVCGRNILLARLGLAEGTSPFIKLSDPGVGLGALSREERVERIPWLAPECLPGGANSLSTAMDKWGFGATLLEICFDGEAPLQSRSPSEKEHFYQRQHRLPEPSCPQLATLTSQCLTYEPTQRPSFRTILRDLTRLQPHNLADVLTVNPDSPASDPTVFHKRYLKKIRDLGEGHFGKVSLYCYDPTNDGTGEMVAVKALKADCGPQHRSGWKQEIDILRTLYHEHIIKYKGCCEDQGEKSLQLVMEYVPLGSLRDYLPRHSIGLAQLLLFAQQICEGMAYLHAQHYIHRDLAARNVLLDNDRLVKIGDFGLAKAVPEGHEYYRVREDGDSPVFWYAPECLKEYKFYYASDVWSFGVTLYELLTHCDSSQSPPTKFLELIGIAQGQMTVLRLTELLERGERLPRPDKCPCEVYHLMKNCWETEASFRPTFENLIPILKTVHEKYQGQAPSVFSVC

For experiment [2], the target named is JAK2 (Homo sapiens (Human), UniProt O60674). The experiment is described as follows: JAK2 activity inhibition assay (radioactive kinase assay / Caliper assay). Type of experiment: biochemical. The note with it: read-out: JAK2 Ki. The method in brief: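 Mobility-shift (Caliper) read-out of phosphorylated peptide substrate. Compound diluted in 25 mM HEPES pH 7.5, 0.01% Brij-35, 0.01% Triton, 0.5 mM EGTA; enzyme added, then peptide plus ATP in 10 mM MgCl2. Incubated 25 min at 28° C, stopped with EDTA buffer.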
Chain of JAK2 (O60674 whole entry): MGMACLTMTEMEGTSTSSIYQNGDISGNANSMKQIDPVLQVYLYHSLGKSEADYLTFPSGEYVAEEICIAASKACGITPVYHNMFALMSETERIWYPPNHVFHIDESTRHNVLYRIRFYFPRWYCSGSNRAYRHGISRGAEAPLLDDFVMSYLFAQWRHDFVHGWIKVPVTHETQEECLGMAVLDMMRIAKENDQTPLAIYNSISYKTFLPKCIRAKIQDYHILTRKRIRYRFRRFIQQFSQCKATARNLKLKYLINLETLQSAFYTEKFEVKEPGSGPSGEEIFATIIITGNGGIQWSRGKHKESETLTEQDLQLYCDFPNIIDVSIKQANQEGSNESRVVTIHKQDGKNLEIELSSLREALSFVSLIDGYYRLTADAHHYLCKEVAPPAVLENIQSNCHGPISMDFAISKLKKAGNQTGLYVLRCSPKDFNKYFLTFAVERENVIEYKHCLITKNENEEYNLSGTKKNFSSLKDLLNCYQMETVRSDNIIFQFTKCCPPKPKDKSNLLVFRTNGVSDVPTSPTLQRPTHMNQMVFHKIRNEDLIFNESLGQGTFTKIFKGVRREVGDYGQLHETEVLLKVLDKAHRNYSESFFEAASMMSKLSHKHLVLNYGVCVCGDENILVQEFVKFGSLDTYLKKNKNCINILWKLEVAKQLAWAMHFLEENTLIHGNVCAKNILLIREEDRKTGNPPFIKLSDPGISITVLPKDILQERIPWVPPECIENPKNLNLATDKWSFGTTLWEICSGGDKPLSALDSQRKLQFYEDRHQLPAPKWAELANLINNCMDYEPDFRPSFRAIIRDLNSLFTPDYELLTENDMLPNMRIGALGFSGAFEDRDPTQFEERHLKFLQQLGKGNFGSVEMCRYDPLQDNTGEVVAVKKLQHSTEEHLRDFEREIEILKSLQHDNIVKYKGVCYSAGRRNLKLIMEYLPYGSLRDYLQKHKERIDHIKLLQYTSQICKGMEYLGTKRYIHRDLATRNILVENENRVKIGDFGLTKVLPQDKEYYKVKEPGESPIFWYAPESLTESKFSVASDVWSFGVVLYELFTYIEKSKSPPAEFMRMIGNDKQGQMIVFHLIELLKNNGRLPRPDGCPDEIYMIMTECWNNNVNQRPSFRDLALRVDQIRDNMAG

In experiment [3] the test system is Tyk2-pSTAT4. The experiment is described as follows: IL-12 induced pSTAT4 in human PBMC. Format: cell-based. Particulars: read-out: Tyk2-pSTAT4 EC50. The procedure: Human PBMC are isolated from buffy coat and are stored frozen for assays as needed. Cells for assay are thawed and resuspended in complete media containing serum, then cells are diluted to 1.67 E6 cells/ml so that 120 μl per well is 200,000 cells. 15 μl of compound or DMSO is added to the well at the desired concentrations and incubated at 1 hr at 37 C. 15 μl of stimulus (final concentration of 1.7 ng/mL IL-12) is added for 30 minutes prior to pSTAT4 and total STAT4 analysis using cell lysates prepared and analyzed by MSD reagents as per manufacturer protocol. The final DMSO concentration of compound in the assay is 0.1%.

The subject of experiment [4] is JAK2-pSTAT5. The experiment is described as follows: GM-CSF induced pSTAT5 in human PBMC. Format: cell-based. Particulars: read-out: JAK2-pSTAT5 EC50. The procedure:
Human PBMC are isolated from buffy coat and are stored frozen for assays as needed. […] 15 μl of compound or DMSO is added to the well at the desired concentrations and incubated at 1 hr at 37 C. 15 μl of stimulus (final concentration of 1.7 ng/mL IL-12) is added for 30 minutes prior to pSTAT4 and total STAT4 analysis using cell lysates prepared and analyzed by MSD reagents as per manufacturer protocol. The final DMSO concentration of compound in the assay is 0.1%.
Cells are prepared for analysis as in the above procedure and 15 μl of GM-CSF (final concentration 5 ng/mL) is added for 20 minutes prior to pSTAT5 and total STAT5 analysis using cell lysates prepared and analyzed by MSD reagents as per manufacturer protocol. The final DMSO concentration of compound in the assay is 0.1%.

Setting [5] is: IL-12 induced pSTAT4, human PBMC.
The mark [6] stands for this setting: GM-CSF induced pSTAT5, human PBMC.

For orientation: Ki means a measure of affinity in units of concentration, obtained from inhibition or displacement. By EC50 is commonly meant the concentration needed to bring the measured effect to its halfway point. As for `CC1(O)CCN(c2ccc(Nc3cc(-c4c(F)cccc4F)nc4c3C(=O)NC4)nc2)CC1` [Compound I-137, 2-(2,6-difluorophenyl)-4-((5-(4-hydroxy-4-methylpiperidin-1-yl)pyridin-2-yl)amino)-6,7-dihydro-5H-pyrrolo[3,4-b]pyridin-5-one], the Ki is less than 10 nM in experiment [1] and 10 to 100 nM in experiment [2]. Also, the results for the EC50 in experiment [3] (setting [5]) and in experiment [4] (setting [6]) were less than 2000 nM and less than 2 µM, respectively.

For `CC(C)NC(=O)c1ccc(Nc2cc(-c3c(F)cccc3F)nc3c2C(=O)NC3)nc1` [Compound I-138, 6-((2-(2,6-difluorophenyl)-5-oxo-6,7-dihydro-5H-pyrrolo[3,4-b]pyridin-4-yl)amino)-N-isopropylnicotinamide], the Ki in experiment [1] is less than 10 nM; in experiment [2], 10 to 100 nM. Further, the EC50 was less than 2000 nM in experiment [3] (Homo sapiens, PBMC) and 2 to 20 µM in experiment [4] (Homo sapiens, PBMC).

On to `O=C(NCC(F)(F)F)c1ccc(Nc2cc(-c3c(F)cccc3F)nc3c2C(=O)NC3)nc1` [Compound I-140, 6-((2-(2,6-difluorophenyl)-5-oxo-6,7-dihydro-5H-pyrrolo[3,4-b]pyridin-4-yl)amino)-N-(2,2,2-trifluoroethyl)nicotinamide], for which the Ki is less than 10 nM in experiment [1] and 10 to 100 nM in experiment [2]. Moreover, the EC50 in experiment [3] (setting [5]) was less than 2000 nM; in experiment [4] (setting [6]), 2 to 20 µM.

Regarding `O=C1NCc2nc(-c3c(F)cccc3F)cc(Nc3ccc(N4CCC(N5CCOCC5)CC4)cn3)c21` [Compound I-142, 2-(2,6-difluorophenyl)-4-((5-(4-morpholinopiperidin-1-yl)pyridin-2-yl)amino)-6,7-dihydro-5H-pyrrolo[3,4-b]pyridin-5-one], the Ki is less than 10 nM in experiment [1] and 10 to 100 nM in experiment [2]. Besides, the EC50 was less than 2000 nM in experiment [3] (setting [5]) and greater than 20 µM in experiment [4] (setting [6]).

With `O=C1NCc2nc(-c3c(F)cccc3F)cc(Nc3ccc(N4CCC(O)CC4)cn3)c21` [Compound I-147, 2-(2,6-difluorophenyl)-4-((5-(4-hydroxypiperidin-1-yl)pyridin-2-yl)amino)-6,7-dihydro-5H-pyrrolo[3,4-b]pyridin-5-one], the figures for the Ki in experiment [1] and in experiment [2] were less than 10 nM and 10 to 100 nM, respectively. Further, the EC50 in experiment [3] (setting [5]) was less than 2000 nM; in experiment [4] (setting [6]) it was less than 2 µM.

As for `O=C1NCc2nc(-c3c(F)cccc3F)cc(Nc3ccc(OCCN4CCOCC4)cn3)c21` [Compound I-148, 2-(2,6-difluorophenyl)-4-((5-(2-morpholinoethoxy)pyridin-2-yl)amino)-6,7-dihydro-5H-pyrrolo[3,4-b]pyridin-5-one], the Ki was less than 10 nM in experiment [1] and 10 to 100 nM in experiment [2]. The EC50 in experiment [3] (setting [5]) was less than 2000 nM; in experiment [4] (setting [6]), 2 to 20 µM.

As to `CN1CCC(C)(c2ccc(Nc3nc(-c4c(F)cccc4F)nc4c3C(=O)NC4)cc2)C1=O` (stereo not shown) [Compound I-150, 2-(2,6-difluorophenyl)-4-((4-(1,3-dimethyl-2-oxopyrrolidin-3-yl)phenyl)amino)-6,7-dihydro-5H-pyrrolo[3,4-d]pyrimidin-5-one], the Ki in experiment [1] is less than 10 nM; in experiment [2] it was 10 to 100 nM. The results for the EC50 in experiment [3] (setting [5]) and in experiment [4] (setting [6]) were less than 2000 nM and 2 to 20 µM, respectively.

For the compound `O=C1NCc2nc(-c3c(F)cccc3F)nc(Nc3ccc([C@H]4CCCNC4=O)cc3)c21` [Compound I-154, (R)-2-(2,6-difluorophenyl)-4-((4-(2-oxopiperidin-3-yl)phenyl)amino)-6,7-dihydro-5H-pyrrolo[3,4-d]pyrimidin-5-one], the results for the Ki in experiment [1] and in experiment [2] were less than 10 nM and 100 to 1000 nM, respectively. In addition, the values for the EC50 in experiment [3] (setting [5]) and in experiment [4] (setting [6]) were less than 2000 nM and greater than 20 µM, respectively.

On to `CC(C)(O)CN1CCC(c2ccc(Nc3nc(-c4c(F)cccc4F)nc4c3C(=O)NC4)cc2)C1=O` (stereo not shown) [Compound I-161, 2-(2,6-difluorophenyl)-4-((4-(1-(2-hydroxy-2-methylpropyl)-2-oxopyrrolidin-3-yl)phenyl)amino)-6,7-dihydro-5H-pyrrolo[3,4-d]pyrimidin-5-one], for which the Ki is less than 10 nM in experiment [1] and 100 to 1000 nM in experiment [2]. The results for the EC50 in experiment [3] (setting [5]) and in experiment [4] (setting [6]) were less than 2000 nM and 2 to 20 µM, respectively.

With `CN1CCN(c2ccc(Nc3cc(-c4c(F)cccc4F)nc4c3C(=O)NC4)nc2)CC1` [Compound I-163, 2-(2,6-difluorophenyl)-4-((5-(4-methylpiperazin-1-yl)pyridin-2-yl)amino)-6,7-dihydro-5H-pyrrolo[3,4-b]pyridin-5-one], the values for the Ki in experiment [1] and in experiment [2] were less than 10 nM and 10 to 100 nM, respectively. The EC50 in experiment [3] (setting [5]) was less than 2000 nM; in experiment [4] (setting [6]), 2 to 20 µM.

Turning to `COc1ccc(Nc2cc(-c3c(F)cccc3F)nc3c2C(=O)NC3)nc1` [Compound I-167, 2-(2,6-difluorophenyl)-4-((5-methoxypyridin-2-yl)amino)-6,7-dihydro-5H-pyrrolo[3,4-b]pyridin-5-one], the values for the Ki in experiment [1] and in experiment [2] were less than 10 nM and 100 to 1000 nM, respectively. Further, the EC50 is less than 2000 nM in experiment [3] (setting [5]) and greater than 20 µM in experiment [4] (setting [6]).

Consider `COc1ccc(Nc2cc(-c3c(F)cccc3F)nc3c2C(=O)NC3)nc1OC` [Compound I-170, 2-(2,6-difluorophenyl)-4-((5,6-dimethoxypyridin-2-yl)amino)-6,7-dihydro-5H-pyrrolo[3,4-b]pyridin-5-one], for which the Ki is less than 10 nM in experiment [1] and 10 to 100 nM in experiment [2]. Moreover, the EC50 in experiment [3] (setting [5]) was less than 2000 nM; in experiment [4] (setting [6]), 2 to 20 µM.

As for `O=C1NCc2nc(-c3c(F)cccc3F)cc(Nc3ccc(N4CCOCC4)cn3)c21` [Compound I-171, 2-(2,6-difluorophenyl)-4-((5-morpholinopyridin-2-yl)amino)-6,7-dihydro-5H-pyrrolo[3,4-b]pyridin-5-one], the Ki in experiment [1] is less than 10 nM; in experiment [2], 10 to 100 nM. Further, the EC50 is less than 2000 nM in experiment [3] (setting [5]) and 2 to 20 µM in experiment [4] (setting [6]).

For `O=C1NCc2nc(-c3c(F)cccc3F)cc(Nc3ccc(N4CCC(F)(F)CC4)cn3)c21` [Compound I-182, 2-(2,6-difluorophenyl)-4-((5-(4,4-difluoropiperidin-1-yl)pyridin-2-yl)amino)-6,7-dihydro-5H-pyrrolo[3,4-b]pyridin-5-one], the Ki in experiment [1] is less than 10 nM; in experiment [2], 10 to 100 nM. Further, the EC50 was less than 2000 nM in experiment [3] (setting [5]) and 2 to 20 µM in experiment [4] (setting [6]).

Regarding `CC(C)(C(=O)N1CCCC1)c1ccc(Nc2nc(-c3c(F)cccc3F)nc3c2C(=O)NC3)cc1` [Compound I-196, 2-(2,6-difluorophenyl)-4-((4-(2-methyl-1-oxo-1-(pyrrolidin-1-yl)propan-2-yl)phenyl)amino)-6,7-dihydro-5H-pyrrolo[3,4-d]pyrimidin-5-one], the Ki in experiment [1] was less than 10 nM; in experiment [2], 100 to 1000 nM. In addition, the EC50 was less than 2000 nM in experiment [3] (setting [5]) and greater than 20 µM in experiment [4] (setting [6]).

In the case of `C[C@H](C(=O)N1CCCCC1)c1ccc(Nc2nc(-c3c(F)cccc3F)nc3c2C(=O)NC3)cc1` [Compound I-206, (S)-2-(2,6-difluorophenyl)-4-((4-(1-oxo-1-(piperidin-1-yl)propan-2-yl)phenyl)amino)-6,7-dihydro-5H-pyrrolo[3,4-d]pyrimidin-5-one], the values for the Ki in experiment [1] and in experiment [2] were less than 10 nM and 100 to 1000 nM, respectively. Besides, the EC50 in experiment [3] (Homo sapiens, PBMC) was less than 2000 nM; in experiment [4] (Homo sapiens, PBMC), greater than 20 µM.

As for `C[C@@H](C(=O)N1CCCCC1)c1ccc(Nc2nc(-c3c(F)cccc3F)nc3c2C(=O)NC3)cc1` [Compound I-207, (R)-2-(2,6-difluorophenyl)-4-((4-(1-oxo-1-(piperidin-1-yl)propan-2-yl)phenyl)amino)-6,7-dihydro-5H-pyrrolo[3,4-d]pyrimidin-5-one], the Ki is less than 10 nM in experiment [1] and 100 to 1000 nM in experiment [2]. The EC50 in experiment [3] (Homo sapiens, PBMC) is less than 2000 nM; in experiment [4] (Homo sapiens, PBMC), 2 to 20 µM.

With `O=C1NCc2nc(-c3c(F)cccc3F)cc(Nc3ccc(N4CC(O)C4)cn3)c21` [Compound I-214, 2-(2,6-difluorophenyl)-4-((5-(3-hydroxyazetidin-1-yl)pyridin-2-yl)amino)-6,7-dihydro-5H-pyrrolo[3,4-b]pyridin-5-one], the Ki in experiment [1] was less than 10 nM; in experiment [2], 10 to 100 nM. Moreover, the EC50 in experiment [3] (setting [5]) is less than 2000 nM; in experiment [4] (setting [6]), 2 to 20 µM.

In the case of `CC(C)(C)N1CCN(c2ccc(Nc3cc(-c4c(F)cccc4F)nc4c3C(=O)NC4)nc2)CC1` [Compound I-227, 4-((5-(4-(tert-butyl)piperazin-1-yl)pyridin-2-yl)amino)-2-(2,6-difluorophenyl)-6,7-dihydro-5H-pyrrolo[3,4-b]pyridin-5-one], the Ki in experiment [1] and in experiment [2] was less than 10 nM each time. Moreover, the EC50 is less than 2000 nM in experiment [3] (setting [5]) and less than 2 µM in experiment [4] (setting [6]).

For the origin of these results see patent US10196390B2, “TYK2 inhibitors and uses thereof” (Nimbus Lakshmi, Inc., priority 2014, dated 2019).
